From PubChem BioAssay (NCI)
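Five concentrations, 48 hours, 96-well plates. Here, GI50 denotes the concentration required for 50% inhibition of growth. TGI marks complete inhibition of growth.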

Columns and labels:
Assay in all cases: NCI-60 cell line screen, 48 h
[1] = tested on: SK-MEL-28 melanoma
[2] = tested on: SNB-75 CNS
[3] = tested on: LOX IMVI melanoma
[4] = tested on: K-562 leukemia
[5] = tested on: HL-60(TB) leukemia
[6] = tested on: HCT-116 colon
[7] = tested on: HOP-62 NSCLC
[8] = tested on: TK-10 renal
[9] = tested on: SW-620 colon
[10] = tested on: UO-31 renal
[11] = tested on: OVCAR-4 ovarian
[12] = tested on: HCC-2998 colon
[13] = tested on: CCRF-CEM leukemia
[14] = tested on: MCF7 breast
[15] = tested on: COLO 205 colon
[16] = tested on: HOP-92 NSCLC
[17] = tested on: T-47D breast
[18] = tested on: MDA-MB-468 breast
[19] = tested on: HCT-15 colon
[20] = tested on: A498 renal
[21] = tested on: MDA-MB-231 breast
[22] = tested on: KM12 colon
[23] = tested on: UACC-62 melanoma
[24] = tested on: SR leukemia
[25] = tested on: SF-268 CNS
[26] = tested on: OVCAR-5 ovarian
[27] = tested on: MOLT-4 leukemia
[28] = tested on: EKVX NSCLC
[29] = tested on: RPMI-8226 leukemia
[30] = tested on: 786-0 renal

## CC(=O)Nc1nc(-c2ccc(N3CCN(C)CC3)c(NS(=O)(=O)c3ccc(C(F)(F)F)cc3)c2)cs1
[1]
  GI50: 7.72 µM
  TGI: 14.7 µM
[2]
  GI50: 2.44 µM
  TGI: 9.48 µM
[3]
  GI50: 2.46 µM
  TGI: 8.87 µM
[4]
  GI50: 5.47 µM
  TGI: 53 µM
[5]
  GI50: 3.35 µM
  TGI: 19.1 µM
[6]
  GI50: 3.01 µM
  TGI: 11.9 µM
[7]
  GI50: 9.06 µM
  TGI: 17.2 µM
[8]
  GI50: 7.04 µM
  TGI: 14 µM
[9]
  GI50: 3.21 µM
  TGI: 11.3 µM
[10]
  GI50: 6.13 µM
  TGI: 12.6 µM
[11]
  GI50: 6.72 µM
  TGI: 14.6 µM
[12]
  GI50: 7.51 µM
  TGI: 14.5 µM
[13]
  GI50: 1.97 µM
  TGI: 9.86 µM
[14]
  GI50: 2.58 µM
  TGI: 10.6 µM
[15]
  GI50: 7.95 µM
  TGI: 18.7 µM
[16]
  GI50: 5.34 µM
  TGI: 14.1 µM
[17]
  GI50: 4.71 µM
  TGI: 13.2 µM
[18]
  GI50: 2.04 µM
  TGI: 7.95 µM
[19]
  GI50: 3.18 µM
  TGI: 10.8 µM
[20]
  GI50: 6.64 µM
  TGI: 13.5 µM
[21]
  GI50: 5.78 µM
  TGI: 12.4 µM
[22]
  GI50: 7.55 µM
  TGI: 16.4 µM
[23]
  GI50: 6.08 µM
  TGI: 12.6 µM
[24]
  GI50: 1.98 µM
  TGI: 37.6 µM
[25]
  GI50: 6.99 µM
  TGI: 16.4 µM
[26]
  GI50: 7.63 µM
  TGI: 14.7 µM
[27]
  GI50: 5.34 µM
  TGI: 23.6 µM
[28]
  GI50: 7.41 µM
  TGI: 14.5 µM
[29]
  GI50: 2.16 µM
  TGI: 53 µM
[30]
  GI50: 5.18 µM
